Experimental data from patent US6924292B2, “Furoisoquinoline derivatives, process for producing the same and use thereof” (Takeda Chemical Industries, Ltd., priority 2000, dated 2005).
pIC50: −log10 of the molar value.

Assays:
[1] = molecular target: T1, recombinant human brain-derived phosphodiesterase 4D3 (Homo sapiens, UniProt Q08499); assay: Assay of phosphodiesterase IV-inhibiting effect (SPA, [3H]cAMP); type: biochemical; conditions: recombinant human brain-derived phosphodiesterase 4D3, SPA with [3H]cAMP, 30 minutes at 30° C.; read-out: PDE IV-inhibiting effect (IC50)
T1 construct: GST (N); made in house; host or cells: Escherichia coli BL21 (BL21/pPDE4D3, FERM BP-7075)
T1 sequence (Q08499 1-673 isoform Q08499-2): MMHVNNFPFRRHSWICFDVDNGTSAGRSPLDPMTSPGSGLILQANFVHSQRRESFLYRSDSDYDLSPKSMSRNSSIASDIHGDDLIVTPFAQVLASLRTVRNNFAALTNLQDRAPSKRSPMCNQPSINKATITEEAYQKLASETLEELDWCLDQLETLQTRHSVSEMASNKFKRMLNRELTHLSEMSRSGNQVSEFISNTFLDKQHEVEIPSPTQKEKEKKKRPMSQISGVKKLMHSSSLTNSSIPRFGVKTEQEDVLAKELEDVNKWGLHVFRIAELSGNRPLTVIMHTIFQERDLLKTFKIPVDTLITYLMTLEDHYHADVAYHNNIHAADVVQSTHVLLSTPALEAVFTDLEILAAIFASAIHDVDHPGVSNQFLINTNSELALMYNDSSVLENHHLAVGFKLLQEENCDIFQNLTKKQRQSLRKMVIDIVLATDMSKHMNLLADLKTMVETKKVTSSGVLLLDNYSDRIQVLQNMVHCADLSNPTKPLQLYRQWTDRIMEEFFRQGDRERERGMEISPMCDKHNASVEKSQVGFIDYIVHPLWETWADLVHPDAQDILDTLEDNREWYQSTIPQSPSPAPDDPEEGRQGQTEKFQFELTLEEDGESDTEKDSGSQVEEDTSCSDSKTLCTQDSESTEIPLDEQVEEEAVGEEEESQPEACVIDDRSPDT
Excerpt: Experiment Example 1 Assay of Phosphodiesterase IV-inhibiting Effect
(1) Human Brain-derived Phosphodiesterase 4D3-encoding Gene Cloning
From a human brain cDNA library, a gene encoding phosphodiesterase 4D3 was cloned. […] The resultant PCR product was subjected to an agarose gel electrophoresis and an about 2.4 kb DNA fragment was recovered. This fragment was made blunt using a Pfu DNA polymerase ([…]) and then a phosphodiesterase 4D3 gene was cloned using Zero Blunt PCR Cloning Kit (Invitrogen).
(2) Construction of E.coli Expression Vector
The plasmid obtained in Section (1) described above was digested with a restriction enzyme EcoRI (Takara) and subjected to an agarose gel electrophoresis to recover an about 2.4 kb DNA fragment. […] This cDNA fragment was transformed into an E.coli BL21 (FUNAKOSHI) using a ligation solution, whereby obtaining an Escherichia coli BL21/pPDE4D3 capable of expressing the phosphodiesterase 4D3 gene.
(3) Expression of Recombinant Human Brain-derived Phosphodiesterase 4D3 in Escherichia coli and Purification Thereof
Using the Escherichia coli BL21/pPDE4D3 obtained in Section (2) described above, a recombinant human brain-derived phosphodiesterase 4D3 was obtained. The expression and purification of E. coli were in accordance with the protocol attached to GST Gene Fusion System (Pharmacia).
(4) Assay of Phosphodiesterase IV-inhibiting Effect
To a 96-well plate (OPTI plate, Packard), 10 μl of a buffer solution [0.5 M Tris-HCl (pH7.5), 83 mM MgCl2, 17 mM EGTA], 10 μl of the recombinant human brain-derived phosphodiesterase 4D3 (0.0034 mg/mL) obtained in […] described above, 65 μl of Ultrapure water, 5 μl of an inhibitor sample and 10 μl of [^3H]cAMP were added and reacted for 30 minutes at 30° C. After completing the reaction, 50 μl of SPA beads solution [18 mg/mL Yttrium silicate beads, 18 mM ZnSO4] was added, allowed to stand at room temperature for about 20 minutes, and the radioactivity was counted using a scintillation counter (Topcount, Packard). […] This assay system was employed to determine the recombinant human brain-derived phosphodiesterase-inhibiting effect (IC50) of each inventive compound.

[2] = system: antigen-induced bronchoconstriction; assay: Inhibiting effect on antigen-induced bronchoconstriction in guinea pigs (modified Konzett-Rossler method); type: in vivo; conditions: guinea pig, 1 mg/kg intravenously 5 minutes before the antigen challenge, vs control group
Method: Example 2 Inhibiting Effect on Antigen-induced Bronchoconstriction in Guinea Pigs
(1) Preparation of Rabbit Anti-ovalbumin (OA) Serum
A white rabbit (body weight: about 3 kg; New Zealand white: […] LABES) was immunized by an intramuscular administration of 1.0 mL of an emulsion of 0.5 mL of a 10% OA (Grade III, Sigma) solution and 0.5 mL of Freund Complete Adjuvant (WAKO PURE CHEMICAL […], LTD.). This procedure was conducted once every week repetitively 4 times in total. One week after the final immunization, the whole blood was sampled. The blood sample was allowed to stand at room temperature for 1 hour or longer, and then in a refrigeration room for a day. On the following day, the serum fraction was isolated and centrifuged (3000 rpm, 10 min.), and the supernatant was stored as an antiserum at −20° C.
(2) Antigen-induced Bronchoconstriction
The bronchoconstriction was measured by a modified Konzett-Rossler method. Each male Hartley guinea pig weighing 400 to 500 g (NIPPON SLC, Shizuoka) was anesthetized with ether, treated intravenously with 1.0 mL of a 8- to 16-fold diluted anti-OA serum, and subjected to an experiment after 16 to 24 hours. Under an anesthesia with urethane (1.2 g/kg ip) (Aldrich), a tracheal cannula was inserted, and gallamine triethiodide (1 mg/kg iv) (Sigma) was administered to arrest the spontaneous respiration. The animal was ventilated artificially using an artificial respirator (Harvard model 683) at 70 respirations/minutes, with each ventilation volume of 2 to 3 mL and initial load of 10 cmH2O, and the intratracheal pressure was measured at the side arm of the tracheal cannula using a differential pressure type transducer. Mepyramine maleate (1.0 mg/kg) (Sigma) and propranolol (1.0 mg/kg) (Sigma) were administered intravenously 2 minutes after the administration of gallamine triethiodide, and after further 2 minutes the OA antigen (1.0 mg/kg) was administered intravenously to induce the bronchoconstriction.
A compound of Example was dissolved in 25% dimethylacetamide, 25% polyethylene glycol 400 and 50% physiological saline, and administered intravenously 5 minutes before the antigen challenge at a dose of 1 mg/kg. Percent inhibition was calculated based on the comparison with a control group (intravenous administration of a mixture of 25% dimethylacetamide, 25% polyethylene glycol 400 and 50% physiological saline).

## COc1cc2c(c3c1OC(C)(C)C3)C(c1cccc(-c3cccc(NC(C)=O)c3)c1)=NC(C)(C)C2 [Example 263, N-[3′-(3,4,8,9-Tetrahydro-6-methoxy-3,3,8,8-tetramethylfuro[2,3-h]isoquinolin-1-yl)[1,1′-biphenyl]-3-yl]acetamide]
[1]
  pIC50: 7.86
[2]
  % inhibition in bronchoconstriction: 59%

## COc1cc2c(c3c1OC(C)(C)C3)C(c1cccc(N(S(C)(=O)=O)S(C)(=O)=O)c1)=NC(C)(C)C2 [Example 45, N-(Methylsulfonyl)-N-[3-(3.4,8,9-tetrahydro-6-methoxy-3,3,8,8-tetramethylfuro[2,3-h]isoquinolin-1-yl)phenyl]methanesulfonamide]
[1]
  pIC50: 8.03
[2]
  % inhibition in bronchoconstriction: 44%

## CCNC(=O)c1cccc(C2=NC(C)(C)Cc3cc(OC)c4c(c32)CC(C)(C)O4)c1 [Example 180, N-Ethyl-3-(3,4,8,9-tetrahydro-6-methoxy-3,3,8,8-tetramethylfuro[2,3-h]isoquinolin-1-yl)benzamide]
[1]
  pIC50: 6.91
[2]
  % inhibition in bronchoconstriction: 57%

## COc1cc2c(c3c1OC(C)(C)C3)C(c1cccc(C(=O)NCCc3ccncc3)c1)=NC(C)(C)C2 [Example 149, N-[2-(4-Pyridinyl)ethyl]-3-(3,4.8,9-tetrahydro-6-methoxy-3,3,8,8-tetramethylfuro[2,3-h]isoquinolin-1-yl)benzamide]
[1]
  pIC50: 7.40
[2]
  % inhibition in bronchoconstriction: 58%

## CNC(=O)c1cccc(C2=NC(C)(C)Cc3cc(OC)c4c(c32)CC(C)(C)O4)c1 [Example 179, N-Methyl-3-(3,4,8,9-tetrahydro-6-methoxy-3,3,8,8-tetramethylfuro[2,3-h]isoquinolin-1-yl)benzamide]
[1]
  pIC50: 6.91
[2]
  % inhibition in bronchoconstriction: 46%

## COc1cc2c(c3c1OC(C)(C)C3)C(c1cccc(C(=O)NCC(N)=O)c1)=NC(C)(C)C2 [Example 157, N-(2-Amino-2-oxoethyl)-3-(3,4,8,9-tetrahydro-6-methoxy-3,3,8,8-tetramethylfuro[2,3-h]isoquinolin-1-yl)benzamide]
[1]
  pIC50: 7.09
[2]
  % inhibition in bronchoconstriction: 57%

## COc1cc2c(c3c1OC(C)(C)C3)C(c1cccc(NC(=O)C[S+](C)[O-])c1)=NC(C)(C)C2 (centres unmarked) [Example 39, 2-(Methylsulfinyl)-N-[3-(3,4,8,9-tetrahydro-6-methoxy-3,3,8,8-tetramethylfuro[2,3-h]isoquinolin-1-yl)phenyl]acetamide]
[1]
  pIC50: 7.71
[2]
  % inhibition in bronchoconstriction: 45%
